From patent publication US9770441B1, “Crystalline solid forms of 6-carboxy-2-(3,5-dichlorophenyl)-benzoxazole” (Pfizer Inc., priority 2014, dated 2017)

Experiments:
[1] = hygroscopicity as stated in the description of the solid form; format: physicochemical; settings: crystalline anhydrous form
[2] = isothermal vapor sorption analysis; format: physicochemical; settings: up to 90% relative humidity, ambient temperature
Protocol: Form 1 was analyzed via isothermal vapor sorption analysis, which is a gravimetric technique that measures how quickly and how much of a solvent is absorbed by a sample: such as a dry powder absorbing water. It does this by varying the vapor concentration surrounding the sample and measuring the change in mass which this produces.

hygroscopicity of the solid form [1]: non-hygroscopic | reversible weight gain [2]: less than 0.25%
Structure (SMILES): O=C(O)c1ccc2nc(-c3cc(Cl)cc(Cl)c3)oc2c1 [Form 1, 6-carboxy-2-(3,5-dichlorophenyl)-benzoxazole]
